What was measured:
[1] = test system: isolated rabbit urinary bladder; assay: Relaxation effect on potassium-induced contraction of isolated rabbit urinary bladder; assay type: cell-based; details: Oryctolagus cuniculus; 50% relaxation concentration; high-K+ (30 mM) pre-contracted rabbit bladder strips; relaxation as percentage of the maximum produced by 0.1 mM papaverine; read-out: EC50 value range
Summary of the method: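 Mucosa-free longitudinal bladder strips from male NZW rabbits, held at 37 °C in Krebs solution gassed with 95% O2/5% CO2, were precontracted with 30 mM K+. Compounds were added cumulatively (10^−8–10^−4 M), with isometric relaxation expressed relative to 0.1 mM papaverine maximum. EC50 was derived and reported as rank ranges.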

[2] = test system: rhythmic bladder contractions induced by substance P; assay: Inhibitory effect on the rhythmic bladder contractions induced by substance P in anesthetized rats; assay type: in vivo, rat; details: time during which frequency of rhythmic contraction was completely inhibited, 0.25 mg/kg of the compound, substance P infusion
Summary of the method: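 Urethane-anesthetized female Sprague-Dawley rats with rhythmic bladder contractions driven by i.v. substance P (0.33 μg/kg/min). Compound given i.v. in saline/0.5% Tween 80 once contractions stable 15 min; intravesical pressure monitored, duration of 100% inhibition ranked A ≥20, B ≥10, C <10 min.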

EC50 [1] [nM]	Structure (SMILES)	100% inhibition time range [2]
500 to 1000	O=C([O-])Cc1oc(-c2ccc(F)cc2)nc1-c1ccc(Cl)s1.[Na+] [Preparation Example 487, 4-(5-chloro-thiophen-2-yl)-2-(4-fluorophenyl)oxazol-5-yl acetic acid sodium salt]	C (A≧20>B≧10>C (minute))
1000 to 3000	O=C(O)Cc1oc(-c2cc3ccccc3s2)nc1-c1ccc(Cl)s1 [Preparation Example 503]	A (A≧20>B≧10>C (minute))
1000 to 3000	CN(C)c1ccc(-c2nc(-c3ccc(Cl)s3)c(CC(=O)O)o2)cn1 [Preparation Example 504]	C (A≧20>B≧10>C (minute))
≤ 500	O=C(O)Cc1oc(-c2ccc(F)cc2)nc1-c1ccc(Cl)cc1 [Preparation Example 511]	C (A≧20>B≧10>C (minute))
500 to 1000	CN(C)c1ncc(-c2nc(-c3ccc(Cl)s3)c(CC(=O)O)o2)cn1 [Preparation Example 512]	B (A≧20>B≧10>C (minute))
500 to 1000	CN(C)c1ccc(-c2nc(-c3ccc(Cl)cc3)c(CC(=O)O)o2)cn1 [Preparation Example 514]	B (A≧20>B≧10>C (minute))
≤ 500	COc1ccc(-c2nc(-c3ccc(Cl)cc3)c(CC(=O)O)o2)cc1 [Preparation Example 517]	C (A≧20>B≧10>C (minute))
1000 to 3000	O=C(O)Cc1nc(-c2ccc(F)cc2)oc1-c1ccc[nH]1 [Preparation Example 524]	B (A≧20>B≧10>C (minute))
1000 to 3000	CN(c1ccc(-c2nc(CC(=O)O)c(-c3ccc(Cl)s3)o2)cn1)C1CC1 [Preparation Example 531]	C (A≧20>B≧10>C (minute))
1000 to 3000	O=C(O)Cc1sc(-c2cc3ccccc3s2)nc1-c1ccc(Cl)cc1 [Preparation Example 574]	B (A≧20>B≧10>C (minute))
≤ 500	COc1ccc(-c2nc(-c3ccc(Cl)cc3)c(CC(=O)O)s2)cc1 [Preparation Example 575]	B (A≧20>B≧10>C (minute))
500 to 1000	CN(C)c1ccc(-c2nc(-c3ccc(Cl)cc3)c(CC(=O)O)s2)cn1 [Preparation Example 576]	A (A≧20>B≧10>C (minute))
500 to 1000	COc1ccc(-c2nc(-c3cccs3)c(CC(=O)O)s2)cc1 [Preparation Example 578]	B (A≧20>B≧10>C (minute))
1000 to 3000	O=C(O)Cc1sc(-c2ccc(F)cc2)nc1-c1ccc(Cl)c(F)c1 [Preparation Example 584]	A (A≧20>B≧10>C (minute))
≤ 500	CCOc1ccc(-c2nc(-c3ccc(Cl)s3)c(CC(=O)O)s2)cn1 [Preparation Example 586]	B (A≧20>B≧10>C (minute))
≤ 500	CSc1ccc(-c2nc(-c3ccc(Cl)s3)c(CC(=O)O)s2)cc1 [Preparation Example 590]	B (A≧20>B≧10>C (minute))
≤ 500	O=C(O)Cc1sc(-c2ccc(F)cc2)nc1-c1ccsc1 [Preparation Example 594]	C (A≧20>B≧10>C (minute))
500 to 1000	CN(C)c1ncc(-c2nc(-c3ccc(Cl)cc3)c(CC(=O)O)s2)cn1 [Preparation Example 601]	A (A≧20>B≧10>C (minute))
500 to 1000	COc1ccc(-c2nc(CC(=O)O)c(-c3ccc(Cl)s3)s2)cc1 [Preparation Example 609]	B (A≧20>B≧10>C (minute))
1000 to 3000	CCNC(=O)Cc1nc(-c2ccc(F)cc2)oc1-c1ccsc1 [Preparation Example 616]	B (A≧20>B≧10>C (minute))
1000 to 3000	O=C(O)/C=C/c1nc(-c2ccc(F)cc2)oc1-c1ccc(Cl)s1 [Preparation Example 626]	C (A≧20>B≧10>C (minute))
1000 to 3000	CCc1nc(-c2ccc(F)cc2)[nH]c1-c1ncccn1 [Preparation example 50]	C (A≧20>B≧10>C (minute))

Further lines, the compound ahead of its results:

Structure (SMILES)	EC50 [1] [nM]	100% inhibition time range [2]
Cc1csc(-c2nc(CC(=O)O)c(-c3ccc(Cl)s3)o2)c1 [Preparation Example 478]	≤ 500	B (A≧20>B≧10>C (minute))
O=C(O)Cc1nc(-c2cc3c(s2)CCC3)oc1-c1ccc(Cl)s1 [Preparation Example 479]	≤ 500	C (A≧20>B≧10>C (minute))
CCc1[nH]c(-c2ccsc2C(C)O)nc1-c1cccnc1.Cl.Cl (centres unmarked) [Preparation Example 486, 2-[2-(1-hydroxyethyl)thiophen-3-yl]-5-ethyl-4-(3-pyridyl)-imidazole dihydrochloride]	1000 to 3000	B (A≧20>B≧10>C (minute))
CSc1ncc(-c2nc(-c3ccc(Cl)s3)c(CC(=O)O)s2)cn1 [Preparation Example 572]	1000 to 3000	C (A≧20>B≧10>C (minute))
CN(C)c1ccc(-c2nc(-c3cccs3)c(CC(=O)O)s2)cn1 [Preparation Example 579]	500 to 1000	C (A≧20>B≧10>C (minute))
Cc1cc(-c2nc(-c3ccc(Cl)s3)c(CC(=O)O)s2)sc1C [Preparation Example 587]	500 to 1000	A (A≧20>B≧10>C (minute))
CN(C)c1ccc(-c2nc(-c3ccsc3)c(CC(=O)O)s2)cn1 [Preparation Example 596]	1000 to 3000	B (A≧20>B≧10>C (minute))
CN(C)c1ncc(-c2nc(-c3ccc(Cl)s3)c(CC(=O)O)s2)cn1 [Preparation Example 600]	≤ 500	A (A≧20>B≧10>C (minute))
O=C(O)Cc1nc(-c2cc3ccccc3s2)sc1-c1ccc(Cl)s1 [Preparation Example 610]	≤ 500	B (A≧20>B≧10>C (minute))
Cc1cc(-c2nc(CC(=O)O)c(-c3ccc(Cl)s3)s2)sc1C [Preparation Example 612]	≤ 500	A (A≧20>B≧10>C (minute))
CCc1nc(-c2cccc(Cl)c2)[nH]c1-c1cccnc1 [Preparation example 13]	≤ 500	C (A≧20>B≧10>C (minute))
CCc1nc(-c2ccc(Cl)s2)[nH]c1-c1cccnc1 [Preparation example 14]	1000 to 3000	A (A≧20>B≧10>C (minute))
CCc1nc(-c2ccc(C#N)s2)[nH]c1-c1cccnc1 [Preparation example 16]	1000 to 3000	B (A≧20>B≧10>C (minute))
Clc1ccc(-c2ncc(-c3cccnc3)[nH]2)s1 [Preparation example 25]	≤ 500	B (A≧20>B≧10>C (minute))
CCCc1nc(-c2cccc(F)c2)[nH]c1-c1ccccc1 [Preparation example 30]	1000 to 3000	B (A≧20>B≧10>C (minute))
CCCc1nc(-c2csc(Cl)c2)[nH]c1-c1ccccc1 [Preparation example 34]	1000 to 3000	A (A≧20>B≧10>C (minute))
CCc1nc(-c2ccc(C#N)cc2)[nH]c1-c1cccnc1 [Preparation example 53]	500 to 1000	C (A≧20>B≧10>C (minute))
Cc1nc(-c2csc(Cl)c2)[nH]c1-c1cccnc1 [Preparation example 54]	1000 to 3000	B (A≧20>B≧10>C (minute))
